Our source for the IC50 values is patent US5968965A, “Inhibitors of farnesyl-protein transferase” (Merck & Co., Inc., priority 1997, dated 1999).

The structures appear in SMILES notation. Structures can show the parent of a compound that is named as a salt.

In the assay the target is T1, human FPTase (Homo sapiens, UniProt P49354+P49356).
T1 construct: made in house
The assay can be described thus: In vitro inhibition of Ras farnesyl transferase (human FPTase). The class given is biochemical. As to conditions: [3H]-FPP incorporation, 100 nM Ras-CVIM, 30 min; read-out: IC50 against human FPTase.

A word on the IC50: it is the concentration that inhibits the measured activity by half.

Turning to `N#Cc1ccc(Cn2cncc2CCC(=O)Nc2cccc(Cl)c2)cc1` [Example 1, N-(3-chlorophenyl)-3-[1-(4-cyanobenzyl)-5-imidazolyl]propionamide hydrochloride], the IC50 is less than 10 µM.
